Reference: patent US20080260636A1, “STABILIZATION OF RADIONUCLIDE-CONTAINING COMPOSITIONS” (priority 2001, published 2008)
Where a SMILES comes first, the peptide text is derived from it. [ ]: non-standard residue; d: D form. The star is where a group is joined. X1 = NCCCC[C@H](NC(=O)[C@H](CS)NC(=O)[C@H](CCCCN)NC(=O)[C@@H](N)CNC(=O)C*)C(N)=O; NMeF = CN[C@@H](Cc1ccccc1)C(=O)O; hCys = N[C@@H](CCS)C(=O)O

Key:
[1] = RCP of 2-vial kit (iodide added to formulated kit, then Tc-99m added); assay type: physicochemical; details: 2-vials
Experimental: (§1) KI affords stability to Tc-99m depreotide even when an oxidant (i.e. nitrate) is present in the eluate. Potassium iodide is well tolerated in humans unlike other stabilizing agents such as methionine or trolox. Methods for determining the RCP value are known in the art such as described in Cancer Res. (1998), May 1, 58(9):1850-1859, and J. Nucl. Med. (1996), June, 37(6): 1016-1022.
(§2) Further examples were conducted to show the stabilizing effect of the iodide ion for other complexes under varying conditions and with varying amounts and sources (KI and NaI) of iodide ion.

[2] = RCP of single vial kit (iodide formulated with targeting agent) reconstituted with Tc 99m; assay type: physicochemical
Experimental: as §1, §2

For `CC(C)[C@@H]1NC(=O)[C@H](CCCCN)NC(=O)[C@@H](Cc2c[nH]c3ccccc23)NC(=O)[C@H](Cc2ccc(O)cc2)NC(=O)[C@H](Cc2ccccc2)N(C)C(=O)[C@H](CCSCC(=O)NC[C@H](N)C(=O)N[C@@H](CCCCN)C(=O)N[C@@H](CS)C(=O)N[C@@H](CCCCN)C(N)=O)NC1=O` [Depreotide, depreotide] (cyclo([hCys](X1)[NMeF]Y[dW]KV)), the “% RCP” value ([1]; KI 4 mg, 5 h) was 94%, the “% RCP” value ([1]; KI 6 mg, 5 h) was 94% and the “% RCP” value ([1]; KI 10 mg, 6 h) was 95%. For the same compound, the “% RCP” value ([2]; KI 4 mg, 5 h) was 89%, the “% RCP” value ([2]; KI 5 mg, 6 h) was 93% and the “% RCP” value ([2]; KI 6 mg, 5 h) was 95%. The “% RCP” value ([2]; NaI 8 mg, 6 h) was 91% and the “% RCP” value ([2]; NaI 10 mg, 5 h) was 93%.
